Measurements taken from PubChem BioAssay (NCI).
Values joined by “and” are separate entries in the source; they are usually repeats but may differ in a detail not shown here. Identical values can stand only once.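 Tested at 5 concentrations; 48 h exposure; 96-well plates; endpoints linearly interpolated, else capped at highest concentration. GI50 = concentration required for 50% inhibition of growth. Definition used: TGI = concentration required for complete inhibition of growth.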

Legend:
Experiment in all cases: growth of human tumour cells (NCI), 48 h
[1] = system: SNB-75 CNS
[2] = system: U251 CNS
[3] = system: RXF 393 renal
[4] = system: SF-268 CNS
[5] = system: 786-0 renal
[6] = system: NCI-H460 lung
[7] = system: IGROV1 ovarian
[8] = system: TK-10 renal
[9] = system: NCI-H522 lung
[10] = system: A498 renal

Row | Structure (SMILES) | GI50 [1] | TGI [1] | GI50 [2] | TGI [2] | GI50 [3] | TGI [3] | GI50 [4] | TGI [4] | GI50 [5] | TGI [5] | GI50 [6] | TGI [6] | GI50 [7] | TGI [7] | GI50 [8] | TGI [8] | GI50 [9] | TGI [9] | GI50 [10] | TGI [10]
1 | O=c1/c(=C\c2ccc(Br)cc2)sc2n1C(c1ccc(Br)cc1)C1=C(N=2)c2ccc3ccccc3c2OCC1 (stereo not given) | > 100 µM | > 100 µM | > 100000 nM | > 100 µM | > 100000 nM | > 100 µM | > 100000 nM | > 100 µM | > 100000 nM | > 100 µM | > 100000 nM | > 100 µM | > 100000 nM | > 100 µM | > 100000 nM | > 100 µM | > 100 µM | > 100 µM | > 100 µM | > 100 µM
2 | CCn1ncc(N=O)c1N | 22 µM and 58 µM | > 100 µM |  |  |  |  |  | > 100 µM |  | > 100 µM |  | > 100 µM |  | > 100 µM |  | > 100 µM |  | > 100 µM |  | 
3 | Nc1nc(N)c2c(n1)CCC(S(=O)(=O)c1ccc3ccccc3c1)C2 (stereo not given) | 12.2 µM | > 100 µM |  | > 100 µM | 2530 nM | 57.8 µM |  | > 100 µM |  | > 100 µM |  | > 67 µM | 1940 nM | > 100 µM |  | 51.4 µM | 2.94 µM | 34.5 µM |  | 40 µM
4 | CCOc1ccc2c(c1)C(=O)c1c-2n(CCCN=[N+]=[N-])c(=O)c2cc([N+](=O)[O-])ccc12 | 17.3 µM | 39.9 µM | 3570 nM | 37.7 µM | 28000 nM | > 100 µM | 1420 nM | 38.4 µM | 4100 nM | 22.7 µM | 284 nM | 10.7 µM | 195 nM | 16.1 µM | 30800 nM | > 100 µM | 3.58 µM | 25.8 µM | 18.5 µM | 58.7 µM
5 | O=C(NN1C(=O)CSC1c1c(Cl)cccc1Cl)C(O)c1ccccc1 (stereo not given) | 32.4 µM | > 100 µM | 37300 nM | > 100 µM | 29300 nM | > 100 µM | 60000 nM | > 100 µM | 69300 nM | > 100 µM | 40400 nM | > 100 µM | 40800 nM | > 100 µM | 78900 nM | > 100 µM | 25.7 µM | > 100 µM | > 100 µM | > 100 µM
6 | O=C1c2ccc3c4c(ccc(c24)C(=O)N1CCNCc1ccccc1)C(=O)N(CCNCc1ccccc1)C3=O | 3.19 µM | 43.1 µM | 2020 nM | 5.42 µM | 1410 nM | 4.21 µM | 2760 nM | 14.7 µM | 1890 nM | 3.59 µM | 1800 nM | 4.26 µM | 1720 nM | 4.27 µM | 2930 nM | > 100 µM |  |  | 15.6 µM | 37.8 µM
7 | CC1(C)C(CC(=O)O)CCCC1CC(=O)O (stereo not given) |  |  |  | > 100 µM |  | > 100 µM |  |  |  | > 100 µM |  |  |  | > 100 µM |  | > 100 µM |  |  |  | > 100 µM
8 | Nc1c(C(=O)Nc2cccc(C(F)(F)F)c2)sc2nc3c(cc12)CCCCCC3 | 1.73 µM | 3.47 µM | 2580 nM | 10.5 µM | 1630 nM | 3.21 µM | 2360 nM | 6.77 µM | 1600 nM | 3.12 µM | 2320 nM | 7.52 µM |  |  | 2180 nM | 5.82 µM | 4.09 µM | 26.9 µM | 1.39 µM | 5.51 µM
9 | O=C(O)CCC1c2[nH]c3ccccc3c2CCN1Cc1ccccc1 (stereo not given) |  | > 100 µM |  | > 100 µM |  |  |  | > 100 µM |  | > 100 µM |  | > 100 µM |  | > 100 µM |  | > 100 µM |  | > 100 µM |  | > 100 µM
10 | O=C(CC1(O)C(=O)Nc2ccccc21)c1ccccc1O (stereo not given) |  | > 100 µM |  |  |  | > 100 µM |  | > 100 µM |  | > 100 µM |  | > 100 µM |  | > 100 µM |  | > 100 µM |  | > 100 µM |  | > 100 µM
11 | CCN(CC)CC(O)c1cc(-c2ccc(Cl)cc2)nc2c(C)c(Cl)ccc12 (stereo not given) | 1.37 µM | 2.65 µM | 1770 nM | 3.33 µM | 1710 nM | 3.14 µM | 1610 nM | 3.05 µM | 1690 nM | 3.18 µM |  |  | 1000 nM | 2.36 µM | 1850 nM | 3.28 µM | 1.85 µM | 3.29 µM |  | 
12 | Cc1c(C(=O)c2ccccc2)[n+](=O)c2cc(F)c(F)cc2n1[O-] |  |  | 1710 nM | 3.08 µM |  |  | 1930 nM | 4.12 µM | 16600 nM | 31.2 µM | 2270 nM | 5.17 µM | 1320 nM | 5.33 µM | 1360 nM | 17.5 µM | 1.93 µM | 3.88 µM | 12.1 µM | 24.9 µM
13 | N#Cc1cccc(C2C(=O)c3ccc(C(=O)c4ccc5c(c4)C(=O)N(c4ccc(Oc6ccc(N7C(=O)c8ccc(C(=O)c9ccc%10c(c9)C(=O)N(c9cccc(C#N)c9)C%10=O)cc8C7=O)cc6)cc4)C5=O)cc3C2=O)c1 (stereo not given) |  | > 100 µM |  | > 100 µM |  | > 100 µM |  | > 100 µM |  | > 100 µM |  | > 100 µM |  | > 100 µM |  | > 100 µM |  | > 100 µM |  | 
14 | N#CCCN(c1ccc(C=O)cc1)S(=O)(=O)c1ccccc1 |  | > 100 µM |  | > 100 µM |  |  |  | > 100 µM |  | > 100 µM |  | > 100 µM |  | > 100 µM |  |  |  | > 100 µM |  | > 100 µM
15 | COc1ccc2nc3ccccc3c(NCCN(CCCl)CCCl)c2c1 |  | 5.72 µM |  | 2.31 µM |  |  |  | 5.74 µM |  | 2.4 µM |  |  |  | 4.34 µM |  | 5.59 µM |  | 1.75 µM |  | 5.73 µM
16 | CCCCCCCCCCCCCCCCCC[S+](C)CC (stereo not given) |  |  |  |  |  |  | 1180 nM | 2.88 µM | 1250 nM | 2.66 µM |  |  |  |  |  |  |  |  | 1.71 µM | 4.36 µM
